Some results are limits rather than exact numbers.

In data set [1] the test system is rat oligodendrocyte progenitor cells. The experiment in a line: Promotive activity of rat oligodendrocyte progenitor cell differentiation-1 (MBP gene expression, mRNA). It counts as cell-based. Conditions: 96 h, read-out: promotive activity at T3 base (MBP gene expression; DMSO 0%, T3 100%). The procedure: Regarding vitamin D derivatives, which was confirmed to act on the vitamin D receptor (VDR) in Example 352, the promotive activity of oligodendrocyte progenitor cell (OPC) differentiation was evaluated by MBP gene expression (mRNA).
A forebrain obtained from SD rat (Charles River Japan, 1 day old) was crushed with 70 μm Cell Strainer (Falcon #352350), and a cell suspension was prepared by collecting the cells in oligodendrocyte progenitor cell separation medium (20% FBS/2 mM Glutamax (Gibco #35050-061)/i mM sodium pyruvate (Gibco #11360-070)/1% penicillin-streptomycin (Invitrogen #15140-122)/DMEM (Gibco #11960-044)). The cell suspension was seeded in a poly-D-lysine coated T75 flask (Thermo Fisher Scientific #132704) and cultured for about 2 weeks. After culturing, the flask was shaken using a rotary shaker ([…] #WB-101SRC) for about 1 hour (37° C., 100 rpm), and the supernatant was discarded to remove microglia. Subsequently, oligodendrocyte progenitor cell separation medium was added to the flask, and the mixture was similarly shaken for about 22 hours (37° C., 200 rpm), and the supernatant was collected to prepare oligodendrocyte progenitor cells. […]

Data set [2] can be described thus: Evaluation of brain penetration in mice. In kind it is in vivo, mouse. Conditions: C57BL/6J mice; for Concentration in brain (mean ± SD) at brain Cmax: Test 2: 0.2 mg/kg single oral dose, n=3. The procedure:
The administration solution was administered orally to C57BL/6J mice (8 weeks old, male, n=3) at a single dose (1 mg/kg). Mice were euthanized at 6 points of 0.25, 0.5, 1, 2, 4, and 8 hours after administration, and plasma and brain sampling were performed. After preparing a homogenate from the collected brain using Tissue Lyser II (QIAGEN #85300), acetonitrile was added to the homogenate and the homogenate was centrifuged (12000 rpm, 5 minutes) to extract the administered test compound contained in the brain. Similarly, the plasma was subjected to addition of acetonitrile and centrifugal separation to extract the administered test compound contained in the plasma. Each extracted sample was subjected to measurement of the concentration of administered test compound using LC/MS/MS (SHIMADZU UFLC/MS/MS (8050)).
The administration solution was administered orally to C57BL/6J mice (8 weeks old, male, n=3) at a single dose (0.2 mg/kg). Mice were euthanized at 6 points of 0.25, 0.5, 1, 2, 4, and 8 hours after administration, and plasma and brain sampling were performed. After preparing a homogenate from the collected brain using Tissue Lyser II (QIAGEN #85300), acetonitrile was added to the homogenate and the homogenate was centrifuged (12000 rpm, 5 minutes) to extract the administered compound contained in the brain. Similarly, the plasma was subjected to addition of acetonitrile and centrifugal separation to extract the administered test compound contained in the plasma. Each extracted sample was subjected to measurement of the concentration of administered test compound using LC/MS/MS (SHIMADZU UFLC/MS/MS (8050)).

Data set [3] deals with mouse experimental autoimmune encephalomyelitis model. The experiment in a line: Combination therapy with the vitamin D derivative and an immunosuppressant (fingolimod) in mouse experimental autoimmune encephalomyelitis model. It counts as in vivo. The conditions noted are these: for clinical score on the day after final administration (Day 30): oral once a day, two weeks. The procedure:
Using a mouse experimental autoimmune encephalomyelitis model, we evaluated the efficacy of the vitamin D derivative of the present invention in combination with fingolimod (an immunosuppressant) approved as a therapeutic drug for multiple sclerosis.
A mouse experimental autoimmune encephalomyelitis model was generated using the Hooke Kit MOG35-55/CFA Emulsion PTX (Cosmo Bio #EK-2110). C57BL/6J mice (11 weeks old, female) were anesthetized with 2.5% isoflurane inhalation and administered 0.1 mL of MOG35-55-CFA subcutaneously to the back and base of the tail, and then two hours later, administered 0.1 mL of pertussis toxin (PTX) intraperitoneally for the initial immunization. One day after the first immunization, 0.1 mL of PTX was administered intraperitoneally again. After the first immunization, clinical scores were measured once a day based on the following criteria. • 0 No abnormality • 0.5 Decrease in tension at the tip of the tail • 1.0 Limp tail • 1.5 Limp tail, and weakness of one hind limb • 2.0 Limp tail, and weakness of both hind limbs with abnormal gait • 2.5 Limp tail, and partial paralysis of one hind limb or abnormal righting reflex • 3.0 Limp tail, and partial paralysis of both hind limbs • 3.5 Limp tail, and paralysis of one hind limb • 4.0 Limp tail, and paralyses of both hind limbs • 4.5 Limp tail, paralyses of both hind legs, and weakness of one forelimb • 5.0 Limp tail, paralyses of both hind limbs, and weakness of both forelimbs (moribund)
Sixteen days after the first immunization, the disease-induced groups were divided into six groups of eight mice each based on the clinical scores, and administration of the compound (D023 6 g/kg) or vehicle was started. […] Two weeks after administration, the mice were euthanized and their spinal cords and whole blood were collected. The intact group indicates a non-treated group.

Data set [4] is described as follows: Evaluation of calcium increasing action in normal mice. Conditions: 2 weeks; for Serum calcium conc.: C57BL/6J mice, Vehicle 8.9.
Method: After acclimatizing C57BL/6J mice (7 weeks old, male) for 1 week, the mice were divided into groups of 5 mice based on the body weight, and administration of the compound or vehicle was started. The administration solution used was a compound (in ethanol) or ethanol diluted 100-fold with 0.1% Trion X-100 (SIGMA #X100-100 ML)/saline, and the repeated oral administration at once a day was performed. After administration of 2 weeks, euthanasia was performed by collecting all blood under general anesthesia.
Where [5] appears, read: compound D023 + fingolimod 0.1 mg/kg (Combination L) vs single group of fingolimod 0.1 mg/kg.
[6] abbreviates: compound D023 + fingolimod 1.0 mg/kg (Combination H) vs single group of fingolimod 1.0 mg/kg.

Turning to `COC1(C)CCCN(C[C@@H](C)[C@H]2CC[C@H]3/C(=C/C=C4C[C@@H](O)C[C@H](O)C4)CCC[C@]23C)C1` (stereo partly drawn) [Compound C045b, (1R,3R)-5-(2-((1R,3aS,7aR,E)-1-((2S)-1-(3-methoxy-3-methylpiperidine-1-yl)propan-2-yl)-7a-methyloctahydro-4H-inden-4-ylidene)ethylidene)cyclohexane-1,3-diol], in data set [1], the activation at 1 µM is at least 20%.
`C[C@H](CN1CCOC2(CC2)C1)[C@H]1CC[C@H]2/C(=C/C=C3C[C@@H](O)C[C@H](O)C3)CCC[C@]12C` [Compound D019, (1R,3R)-5-(2-((1R,3aS,7aR,E)-1-((S)-1-(4-oxa-7-azaspiro[2.5]octan-7-yl)propan-2-yl)-7a-methyloctahydro-4H-inden-4-ylidene)ethylidene)cyclohexane-1,3-diol]: the “Concentration ratio in brain/in blood at brain Cmax” value in data set [2] (Test 1: 1 mg/kg single oral dose) stood at 2.89.
On to `C[C@H](CCN1CCOCC1)[C@H]1CC[C@H]2/C(=C/C=C3C[C@@H](O)C[C@H](O)C3)CCC[C@]12C` [Compound D023, (1R,3R)-5-(2-((1R,3aS,7aR,E)-7a-methyl-1-((R)-4-morpholinobutan-2-yl)octahydro-4H-inden-4-ylidene)ethylidene)cyclohexane-1,3-diol], for which the “blood lymphocyte count on the day after final administration (Day 30)” value in data set [3] (setting [5]) is given as “no significant difference”; in data set [3] (setting [6]), “neither was there a significant difference”. Moreover, the “clinical score on the day after final administration (Day 30)” value in data set [3] (setting [5]) and in data set [3] (setting [6]) was “significantly lower clinical score” each time.
Turning to `C[C@H](CN1CCOC[C@@H]1C)[C@H]1CC[C@H]2/C(=C/C=C3C[C@@H](O)C[C@H](O)C3)CCC[C@]12C` [Compound G004, (1R,3R)-5-(2-((1R,3aS,7aR,E)-7a-methyl-1-((S)-1-((S)-3-methylmorpholino)propan-2-yl)octahydro-4H-inden-4-ylidene)ethylidene)cyclohexane-1,3-diol], the “Concentration in brain (mean ± SD) at brain Cmax” value in data set [2] is 171.2 ± 37.4 pmol/g. Further, the “Calcium conc. Fluctuation range” value in data set [4] (20 μg/kg oral once a day) was 0 mg/dL; in data set [4] (60 μg/kg oral once a day) it was -0.1 mg/dL; in data set [4] (200 μg/kg oral once a day), 0.1 mg/dL. Moreover, the Serum calcium conc. in data set [4] (20 μg/kg oral once a day) is reported as 8.9 mg/dL; in data set [4] (60 μg/kg oral once a day), 8.8 mg/dL; in data set [4] (200 μg/kg oral once a day), 9.0 mg/dL.
With `C[C@H](CN1CCOC[C@H]1C)[C@H]1CC[C@H]2/C(=C/C=C3C[C@@H](O)C[C@H](O)C3)CCC[C@]12C` [Compound G005, (1R,3R)-5-(2-((1R,3aS,7aR,E)-7a-methyl-1-((S)-1-((R)-3-methylmorpholino)propan-2-yl)octahydro-4H-inden-4-ylidene)ethylidene)cyclohexane-1,3-diol], the “Concentration in brain (mean ± SD) at brain Cmax” value in data set [2] was determined as 140.8 ± 17.6 pmol/g. In addition, the “Calcium conc. Fluctuation range” value in data set [4] (20 μg/kg oral once a day) worked out at 0.2 mg/dL; in data set [4] (60 μg/kg oral once a day), 0.2 mg/dL; in data set [4] (200 μg/kg oral once a day), 0.1 mg/dL. In addition, the values for the Serum calcium conc. in data set [4] (20 μg/kg oral once a day), in data set [4] (60 μg/kg oral once a day) and in data set [4] (200 μg/kg oral once a day) were 9.1 mg/dL, 9.1 mg/dL and 9.0 mg/dL, respectively.
Turning to `C[C@H](CN1CCOCC1(C)C)[C@H]1CC[C@H]2/C(=C/C=C3C[C@@H](O)C[C@H](O)C3)CCC[C@]12C` [Compound G006, (1R,3R)-5-(2-((1R,3aS,7aR,E)-1-((S)-1-(3,3-dimethylmorpholino)propan-2-yl)-7a-methyloctahydro-4H-inden-4-ylidene)ethylidene)cyclohexane-1,3-diol], in data set [2], the “Concentration in brain (mean ± SD) at brain Cmax” value amounted to 137.8 ± 11.5 pmol/g. In addition, the “Calcium conc. Fluctuation range” value in data set [4] (20 μg/kg oral once a day) is 0 mg/dL; in data set [4] (60 μg/kg oral once a day) it was 0 mg/dL; in data set [4] (200 μg/kg oral once a day), -0.3 mg/dL. The Serum calcium conc. in data set [4] (20 μg/kg oral once a day) is on record as 8.9 mg/dL; in data set [4] (60 μg/kg oral once a day) it was 8.9 mg/dL; in data set [4] (200 μg/kg oral once a day), 8.6 mg/dL.

Values taken from patent US20250195488A1, “MEDICINE CONTAINING VITAMIN D DERIVATIVE OR PHARMACEUTICALLY ACCEPTABLE SALT OR SOLVATE THEREOF, USED IN COMBINATION WITH IMMUNOMODULATORY SUBSTANCE” (TEEJIN PHARMA LIMITED, priority 2022, published 2025).
